Data set [1] has as its system SW1222 tumor (same animal model). Particulars: 24 h p.i.; 1.85-8.8 MBq, 10-50 pmol; cited from earlier work.
Data set [2] deals with GPA33-expressing SW1222 xenografts. Put plainly: Absorbed dose estimates for PRIT+[^177Lu]LuDOTA-Bn including dendron-CA CCA-16-DOTA-Y^3+. It is filed as in vivo, nude mice. The conditions noted are these: with dendron-CA; bone marrow as dose-limiting organ. How it is done:
Absorbed dose estimates for PRIT+[^177Lu]LuDOTA-Bn including dendron-CA CCA-16-DOTA-Y^3+: In order to calculate absorbed doses for PRIT+[[…]]LuDOTA-Bn including dendron-CA (the clearing agent of the present technology), groups of nude mice bearing GPA33-expressing SW1222 xenografts (n=5/group) were injected i.v. with the BsAb huA33-C825 (250 μg; 1.19 nmol) 28 h prior and i.v. with dendron-clearing agent CCA-16-DOTA-Y^3+ (25 μg; 2.76 nmol) 4 h prior to administration of [^177Lu]LuDOTA-Bn (20 pmol, 3.7 MBq [100 μCi]). These mice were sacrificed at 1, 4, 24, or 48 h p.i. of [^177Lu]LuDOTA-Bn for biodistribution assay. For each tissue, the non-decay-corrected time-activity concentration data were fitted using Excel to a 1-component, 2-component, or more complex exponential function as appropriate, and analytically integrated to yield the cumulated activity concentration per unit administered activity (MBq-h/g per MBq). The ^177Lu equilibrium dose constant for non-penetrating radiations (8.49 g-cGy/MBq-h) was used to estimate the tumor-to-tumor and select organ-to-organ self-absorbed doses, assuming complete local absorption of the ^177Lu beta rays only, and ignoring the gamma ray and non-self dose contributions.

In data set [3] the test system is SW1222 xenografts (anti-GPA33 PRIT). Particulars: with dextran-CA, cited from earlier work.
The test system is the same in data set [4]. Put plainly: Optimized PRIT+[^177Lu]LuDOTA-Bn including dextran-CA (Cheal et al. 2016): dosimetry and therapy. It is filed as in vivo, mice. The conditions noted are these: with dextran-CA; bone marrow as dose-limiting organ. The source says: See Cheal et al., Eur J Nucl Med Mol Imaging 43: 925 (2016). […] Cheal et al., Eur J Nucl Med Mol Imaging 43: 925 (2016).
Based on human normal-tissue radiation dose tolerance estimates derived from clinical observations (Marks, et al., Int J Radiat Oncol Biol Phys. 76:S10-9 (2010)) the maximum tolerated doses (MTDs) are 250 cGy for bone marrow, 1,500 cGy for lung, 3,000 cGy for liver, and 2,000 cGy for kidney. […] At this activity, the estimated absorbed dose delivered to tumor would be 18,292 cGy (183 Gy), with 250 cGy to blood (marrow) and 1,473 cGy to kidney.

For “^177Lu-aminobenzylDOTA [[^177Lu]LuDOTA-Bn]”, the mean tumor uptake in data set [1] is given as roughly 8 % ID/g. Moreover, the entries for the “maximum tolerated pretargeted activity” value in data set [2] and in data set [4] were 21 MBq and 278 MBq, respectively. Besides, the CR frequency in data set [3] (111.0 MBq delivered in a fractionated dose strategy) was 100%. The “survival beyond 140 days” value in data set [3] (111.0 MBq fractionated) is listed as “two of nine mice”. The treatment-related toxicity entry in data set [3] (effective treatment) is “no major treatment-related toxicities observed”.

Values taken from US11413354B2, “N-acetylgalactosamino dendron-clearing agent for dota-pretargeted radioimmunotherapy” (priority 2018, dated 2022).
